Consider nine molecules from patent publication EP4806891A1 (Kangbaida (Sichuan) Biotechnology Co., Ltd., priority 2023, dated 2025).

Assay [1] addresses T1, HEK-Blue-hTLR7 cells (Homo sapiens, UniProt Q9NYK1).
T1 construct: expressed in transfected cells; host or cells: HEK-Blue-hTLR7 cells (HEK293-derived reporter line)
T1 sequence (Q9NYK1 27-1049): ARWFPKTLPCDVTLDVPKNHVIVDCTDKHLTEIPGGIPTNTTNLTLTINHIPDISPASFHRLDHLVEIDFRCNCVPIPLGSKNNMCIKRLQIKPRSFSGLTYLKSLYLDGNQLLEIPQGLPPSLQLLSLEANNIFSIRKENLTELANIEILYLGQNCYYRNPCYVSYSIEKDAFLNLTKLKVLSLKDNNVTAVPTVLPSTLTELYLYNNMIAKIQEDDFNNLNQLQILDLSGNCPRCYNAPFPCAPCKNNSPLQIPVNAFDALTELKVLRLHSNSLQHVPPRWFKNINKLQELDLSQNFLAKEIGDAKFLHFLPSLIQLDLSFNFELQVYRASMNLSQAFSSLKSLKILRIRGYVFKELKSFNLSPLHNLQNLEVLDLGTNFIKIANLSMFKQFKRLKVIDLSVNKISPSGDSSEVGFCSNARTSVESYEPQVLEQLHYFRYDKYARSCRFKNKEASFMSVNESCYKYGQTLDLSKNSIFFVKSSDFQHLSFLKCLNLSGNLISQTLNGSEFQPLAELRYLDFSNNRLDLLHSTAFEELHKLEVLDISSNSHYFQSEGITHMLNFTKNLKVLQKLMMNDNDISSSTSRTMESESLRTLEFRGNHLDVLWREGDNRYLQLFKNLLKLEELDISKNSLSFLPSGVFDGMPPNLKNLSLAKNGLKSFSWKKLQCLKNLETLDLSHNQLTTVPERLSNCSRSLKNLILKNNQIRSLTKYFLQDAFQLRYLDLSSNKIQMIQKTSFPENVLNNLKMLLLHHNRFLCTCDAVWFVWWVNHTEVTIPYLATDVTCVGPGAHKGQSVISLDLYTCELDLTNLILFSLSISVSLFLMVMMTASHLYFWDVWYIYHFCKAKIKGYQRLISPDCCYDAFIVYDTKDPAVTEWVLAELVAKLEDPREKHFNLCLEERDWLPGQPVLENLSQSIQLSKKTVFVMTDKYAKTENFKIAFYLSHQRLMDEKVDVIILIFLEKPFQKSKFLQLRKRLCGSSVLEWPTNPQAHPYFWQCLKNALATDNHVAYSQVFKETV
In words: HEK-Blue-hTLR7 cell inhibition assay. The format is cell-based. As to conditions: R848 0.8 µM, 16 h, OD 620 nm, read-out: TLR7 IC50. On the procedure: (§1) HEK-Blue-hTLR7/8/9 cell inhibition assay
(§2) 1. HEK-Blue-hTLR7/8 cells (1 × 10^4 cells/well) and HEK-Blue-hTLR9 cells (1.5 × 10^4 cells/well) were seeded in a 384-well cell culture plate, with a volume of 30 µL per well. The plate was incubated at 37°C in a 5% CO2 incubator for 4 h. 2. The compound was prepared with DMSO and diluted in DMEM medium to 10 concentrations (1:3 dilution), with final concentrations of 10000, 3333.3, 1111.1, 370.4, 123.5, 41.2, 13.7, 4.6, 1.5, and 0.5 nM; R848 was prepared with DMSO and diluted in DMEM medium, with final concentrations of 0.8 µM (HEK-Blue-hTLR7) and 3 µM (HEK-Blue-hTLR8); ODN2006 was prepared with endotoxin-free water and diluted in DMEM medium, with a final concentration of 1 µM. 3. Cells treated with DMSO were used as the blank control group, while cells treated solely with Resiquimod (R848) were used as the positive control group for HEK-Blue-hTLR7/8, and cells treated solely with ODN2006 were used as the positive control group for HEK-Blue-hTLR9. Cells treated with the test compound together with R848 or ODN2006 were used as the test group. Two parallel wells were set for each group and were placed at 37°C in a 5% CO2 incubator for incubation. 4. After being incubated for 4 h, the 384-well plate of HEK-Blue-hTLR7/8 was taken out from the incubator, and R848 alone or both R848 and the diluted compound were separately added into each well. The plate was placed at 37°C in a 5% CO2 incubator for incubation for 16 h; the 384-well plate of HEK-Blue-hTLR9 was taken out from the incubator, and ODN2006 alone or both ODN2006 and the diluted compound were added separately to each well. The plate was incubated at 37°C in a 5% CO2 incubator for 16 h. 5. After being incubated for 16 h, the 384-well plate was removed from the incubator and centrifuged at 1000 rpm for 1 minute. The optical density value of each well at 620 nm was measured using a multifunctional microplate reader. 6. The cell inhibition rate was calculated as (1-(OD620 test group-OD620 blank group)/(OD620 positive group-OD620 blank group))×100%, and the half maximal inhibitory concentration (IC50) was calculated through curve fitting. Table 1: Activity of the compounds of the present disclosure in HEK-Blue-hTLR7/8/9 cellular assays

Assay [2] has as its target T2, HEK-Blue-hTLR8 cells (Homo sapiens, UniProt Q9NR97).
T2 construct: expressed in transfected cells; host or cells: HEK-Blue-hTLR8 cells (HEK293-derived reporter line)
T2 sequence (Q9NR97 27-1041): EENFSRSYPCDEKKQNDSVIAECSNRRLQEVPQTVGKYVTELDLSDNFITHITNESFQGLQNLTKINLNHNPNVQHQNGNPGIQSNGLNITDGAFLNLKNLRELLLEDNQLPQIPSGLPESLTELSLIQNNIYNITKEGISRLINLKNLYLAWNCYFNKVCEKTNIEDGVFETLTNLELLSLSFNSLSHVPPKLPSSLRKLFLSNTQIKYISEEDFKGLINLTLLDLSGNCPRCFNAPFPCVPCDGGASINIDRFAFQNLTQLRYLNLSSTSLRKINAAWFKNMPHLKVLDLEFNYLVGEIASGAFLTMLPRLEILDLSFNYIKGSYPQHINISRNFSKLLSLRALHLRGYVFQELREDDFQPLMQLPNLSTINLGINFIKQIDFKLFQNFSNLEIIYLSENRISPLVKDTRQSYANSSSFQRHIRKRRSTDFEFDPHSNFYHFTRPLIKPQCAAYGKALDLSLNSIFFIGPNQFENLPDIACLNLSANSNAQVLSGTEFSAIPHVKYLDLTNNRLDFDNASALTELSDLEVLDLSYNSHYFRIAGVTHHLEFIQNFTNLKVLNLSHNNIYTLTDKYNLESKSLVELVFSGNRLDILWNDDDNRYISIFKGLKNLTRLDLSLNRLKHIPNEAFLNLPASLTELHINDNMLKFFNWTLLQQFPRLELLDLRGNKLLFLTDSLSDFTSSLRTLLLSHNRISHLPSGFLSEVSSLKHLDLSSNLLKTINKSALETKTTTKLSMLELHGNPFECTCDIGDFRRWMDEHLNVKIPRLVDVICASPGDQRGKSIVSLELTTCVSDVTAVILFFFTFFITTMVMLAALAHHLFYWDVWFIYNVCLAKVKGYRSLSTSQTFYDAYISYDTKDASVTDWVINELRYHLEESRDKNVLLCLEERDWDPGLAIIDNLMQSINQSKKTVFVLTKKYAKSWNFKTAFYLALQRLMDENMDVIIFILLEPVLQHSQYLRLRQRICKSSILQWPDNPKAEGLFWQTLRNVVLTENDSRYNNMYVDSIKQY
In words: HEK-Blue-hTLR8 cell inhibition assay. Type of assay: cell-based. The following applies: R848 3 µM, 16 h, OD 620 nm, read-out: TLR8 IC50. As to the method: as §1, §2

In general, IC50 refers to the concentration that inhibits the measured activity by half.

In the case of `CN1CCC(c2nnc([C@]34CN(c5ccc(F)c6ncccc56)C[C@@]3(C(F)(F)F)C4)o2)CC1` [Compound 69, 2-((1S,5R)-3-(8-fluoroquinolin-5-yl)-5-(trifluoromethyl)-3-azabicyclo[3.1.0]hexan-1-yl)-5-(1-methylpiperidin-4-yl)-1,3,4-oxadiazole], the IC50 in assay [1] and in assay [2] was less than 100 nM each time.
With `CCc1nc2c(C#N)ccc(N3C[C@]4(c5nnc(C6CCN(C)CC6)o5)C[C@]4(C(F)(F)F)C3)c2nc1CC` [Compound 70, 2,3-diethyl-8-((1S,5R)-1-(5-(1-methylpiperidin-4-yl)-1,3,4-oxadiazol-2-yl)-5-(trifluoromethyl)-3-azabicyclo[3.1.0]hexan-3-yl)quinoxaline-5-carbonitrile], the IC50 in assay [1] was greater than 1000 nM; in assay [2], greater than 10000 nM.
The like results for `CN1CCC(c2nnc([C@]34CN(c5ccc(C#N)c6c5ccc(=O)n6C)C[C@@]3(C(F)(F)F)C4)o2)CC1` [Compound 72, 1-methyl-5-((1S,5R)-1-(5-(1-methylpiperidin-4-yl)-1,3,4-oxadiazol-2-yl)-5-(trifluoromethyl)-3-azabicyclo[3.1.0]hexan-3-yl)-2-oxo-1,2-dihydroquinoline-8-carbonitrile] were, in that order, greater than 1000 nM and less than 1000 nM.
For `Cc1ccc2c(N3C[C@]4(c5nnc(C6CCN(C)CC6)o5)C[C@]4(C(F)(F)F)C3)ccc(C#N)c2n1` [Compound 73, 2-methyl-5-((1S,5R)-1-(5-(1-methylpiperidin-4-yl)-1,3,4-oxadiazol-2-yl)-5-(trifluoromethyl)-3-azabicyclo[3.1.0]hexan-3-yl)quinoline-8-carbonitrile] the same measures were greater than 1000 nM and greater than 1000 nM.
The like results for `CN1CCC(n2cnc([C@]34CN(c5ccc(C#N)n6ncc(F)c56)C[C@@]3(C(F)(F)F)C4)n2)CC1` [Compound 74, 3-fluoro-4-((1S,5R)-1-(1-(1-methylpiperidin-4-yl)-1H-1,2,4-triazol-3-yl)-5-(trifluoromethyl)-3-azabicyclo[3.1.0]hexan-3-yl)pyrazolo[1,5-a]pyridine-7-carbonitrile] were, in that order, less than 100 nM and less than 100 nM.
Turning to `CN1[C@@H]2CC[C@H]1C[C@@H](c1nnc([C@]34CN(c5ccc(C(F)(F)F)c6ncccc56)C[C@@]3(C(F)(F)F)C4)o1)C2` [Compound 78, 2-((1R,3R,5S)-8-methyl-8-azabicyclo[3.2.1]octan-3-yl)-5-((1S,5R)-5-(trifluoromethyl)-3-(8-(trifluoromethyl)quinolin-5-yl)-3-azabicyclo[3.1.0]hexan-1-yl)-1,3,4-oxadiazole], the IC50 in assay [1] and in assay [2] was less than 100 nM in each case.
As for `CN(C)C12CCC(c3nnc([C@]45CN(c6ccc(C(F)(F)F)c7ncccc67)C[C@@]4(C(F)(F)F)C5)o3)(CC1)CC2` [Compound 82, N,N-dimethyl-4-(5-((1S,5R)-5-(trifluoromethyl)-3-(8-(trifluoromethyl)quinolin-5-yl)-3-azabicyclo[3.1.0]hexan-1-yl)-1,3,4-oxadiazol-2-yl)bicyclo[2.2.2]octan-1-amine], the IC50 in assay [1] and in assay [2] was less than 100 nM throughout.
With `CN1CCC(c2nnc([C@]34CN(c5ccc(C(F)(F)F)c6nccnc56)C[C@@]3(C(F)(F)F)C4)o2)CC1` [Compound 88, 2-(1-methylpiperidin-4-yl)-5-((1S,5R)-5-(trifluoromethyl)-3-(8-(trifluoromethyl)quinoxalin-5-yl)-3-azabicyclo[3.1.0]hexan-1-yl)-1,3,4-oxadiazole], the IC50 in assay [1] and in assay [2] was less than 100 nM in each case.
For `CN1CCC(Oc2nnc([C@]34CN(c5ccc(C#N)n6nccc56)C[C@@]3(C(F)(F)F)C4)o2)CC1` [Compound 89, 4-((1S,5R)-1-(5-((1-methylpiperidin-4-yl)oxy)-1,3,4-oxadiazol-2-yl)-5-(trifluoromethyl)-3-azabicyclo[3.1.0]hexan-3-yl)pyrazolo[1,5-a]pyridine-7-carbonitrile], the IC50 in assay [1] and in assay [2] was less than 100 nM each time.
